Target in one data set: not listed separately
Briefly: Inhibition of HCV NS3 4A protease. Further details: species or system Hepacivirus hominis.
Conditions: not given
As usually defined, the Ki is the dissociation constant of the complex between target and ligand, obtained from inhibition or displacement. `CCC[C@H](NC(=O)[C@@H]1C[C@@H]2CCCC[C@@H]2N1C(=O)[C@@H](NC(=O)[C@@H](NC(=O)c1cc2cc(F)ccc2[nH]1)C1CCCCC1)C(C)(C)C)C(=O)C(=O)NC1CC1` came in with a Ki of 120 nM.

`CCC[C@H](NC(=O)[C@@H]1C[C@@H]2CCCC[C@@H]2N1C(=O)[C@@H](NC(=O)[C@@H](NC(=O)C(=O)NC(C)C)C1CCCCC1)C(C)(C)C)C(=O)C(=O)NC1CC1` returned a Ki of 160 nM.

`CCC[C@H](NC(=O)[C@@H]1C[C@@H]2CCCC[C@@H]2N1C(=O)[C@@H](NC(=O)[C@@H](NC(=O)c1ccccn1)C1CCCCC1)C(C)(C)C)C(=O)C(=O)NC1CC1` returned a Ki of 520 nM. This Ki is about 3.2-fold higher than that of the molecule before.

`CCC[C@H](NC(=O)[C@@H]1C[C@@H]2CCCC[C@@H]2N1C(=O)[C@@H](NC(=O)[C@@H](NC(=O)c1cnc2ccccc2n1)C1CCCCC1)C(C)(C)C)C(=O)C(=O)NC1CC1`: the affinity corresponds to a Ki of 440 nM. The Ki values of the last two molecules are within 1.5-fold of each other.

In turn, `CCC[C@H](NC(=O)[C@@H]1C[C@@H]2CCCC[C@@H]2N1C(=O)[C@@H](NC(=O)[C@@H](NC(=O)[C@@H]1Cc2ccccc2N1)C1CCCCC1)C(C)(C)C)C(=O)C(=O)NC1CC1` showed a Ki of 320 nM. This Ki and that of the molecule before are within 1.5-fold of each other.

`CCC[C@H](NC(=O)[C@@H]1C[C@@H]2CCCC[C@@H]2N1C(=O)[C@@H](NC(=O)[C@@H](NC(=O)C(=O)NCc1ccccc1)C1CCCCC1)C(C)(C)C)C(=O)C(=O)NC1CC1` displayed a Ki of 140 nM.

`CCC[C@H](NC(=O)[C@@H]1C[C@@H]2CCCC[C@@H]2N1C(=O)[C@@H](NC(=O)[C@@H](NC(=O)c1ccoc1)C1CCCCC1)C(C)(C)C)C(=O)C(=O)NC1CC1`: the Ki is 240 nM.

With `CCC[C@H](NC(=O)[C@@H]1C[C@@H]2CCCC[C@@H]2N1C(=O)[C@@H](NC(=O)[C@@H](NC(=O)C1(O)CCCC1)C1CCCCC1)C(C)(C)C)C(=O)C(=O)NC1CC1`, the affinity, expressed as Ki, was 640 nM.

For the molecule `CCC[C@H](NC(=O)[C@@H]1C[C@@H]2CCCC[C@@H]2N1C(=O)[C@@H](NC(=O)[C@@H](NC(=O)c1cc([N+](=O)[O-])c[nH]1)C1CCCCC1)C(C)(C)C)C(=O)C(=O)NC1CC1`, affinity was put at a Ki of 50 nM.

Tested on in a further data set: not listed separately
In words: Selectivity index, ratio of CC50 for Huh7cells to IC50 for HCV. Type of data set: functional.
Conditions: not given
Turning to `CCC[C@H](NC(=O)[C@@H]1C[C@@H]2CCCC[C@@H]2N1C(=O)[C@@H](NC(=O)[C@@H](NC(=O)c1cc2cc(F)ccc2[nH]1)C1CCCCC1)C(C)(C)C)C(=O)C(=O)NC1CC1`, the Selectivity index is > 203.

As to `CCC[C@H](NC(=O)[C@@H]1C[C@@H]2CCCC[C@@H]2N1C(=O)[C@@H](NC(=O)[C@@H](NC(=O)C(=O)NC(C)C)C1CCCCC1)C(C)(C)C)C(=O)C(=O)NC1CC1`, the Selectivity index is > 249.

As for `CCC[C@H](NC(=O)[C@@H]1C[C@@H]2CCCC[C@@H]2N1C(=O)[C@@H](NC(=O)[C@@H](NC(=O)c1ccccn1)C1CCCCC1)C(C)(C)C)C(=O)C(=O)NC1CC1`, the Selectivity index is > 52.

For `CCC[C@H](NC(=O)[C@@H]1C[C@@H]2CCCC[C@@H]2N1C(=O)[C@@H](NC(=O)[C@@H](NC(=O)c1cnc2ccccc2n1)C1CCCCC1)C(C)(C)C)C(=O)C(=O)NC1CC1`, the Selectivity index was > 81.

Consider `CCC[C@H](NC(=O)[C@@H]1C[C@@H]2CCCC[C@@H]2N1C(=O)[C@@H](NC(=O)[C@@H](NC(=O)[C@@H]1Cc2ccccc2N1)C1CCCCC1)C(C)(C)C)C(=O)C(=O)NC1CC1`, for which the Selectivity index is > 90.

`CCC[C@H](NC(=O)[C@@H]1C[C@@H]2CCCC[C@@H]2N1C(=O)[C@@H](NC(=O)[C@@H](NC(=O)C(=O)NCc1ccccc1)C1CCCCC1)C(C)(C)C)C(=O)C(=O)NC1CC1`: the Selectivity index is > 380.

Take `CCC[C@H](NC(=O)[C@@H]1C[C@@H]2CCCC[C@@H]2N1C(=O)[C@@H](NC(=O)[C@@H](NC(=O)c1ccoc1)C1CCCCC1)C(C)(C)C)C(=O)C(=O)NC1CC1`: the Selectivity index was > 71.

On to `CCC[C@H](NC(=O)[C@@H]1C[C@@H]2CCCC[C@@H]2N1C(=O)[C@@H](NC(=O)[C@@H](NC(=O)C1(O)CCCC1)C1CCCCC1)C(C)(C)C)C(=O)C(=O)NC1CC1`, for which the Selectivity index is > 64.

As to `CCC[C@H](NC(=O)[C@@H]1C[C@@H]2CCCC[C@@H]2N1C(=O)[C@@H](NC(=O)[C@@H](NC(=O)c1cc([N+](=O)[O-])c[nH]1)C1CCCCC1)C(C)(C)C)C(=O)C(=O)NC1CC1`, the Selectivity index is > 270.

Tested on in a further data set: not listed separately
Briefly: Ratio of drug level in CD1 mouse liver to IC50 for HCV. Type of data set: functional, tissue-based.
Conditions: not given
Regarding `CCC[C@H](NC(=O)[C@@H]1C[C@@H]2CCCC[C@@H]2N1C(=O)[C@@H](NC(=O)[C@@H](NC(=O)c1cc([N+](=O)[O-])c[nH]1)C1CCCCC1)C(C)(C)C)C(=O)C(=O)NC1CC1`, the Ratio amounted to 0.03.

Tested on in a further data set: not listed separately
In words: Cytotoxicity against Huh7 cells by MTS assay. It counts as cell-based, Huh-7. The following applies: human.
Usually CC50 stands for the concentration that lowers cell viability or growth by half. Turning to `CCC[C@H](NC(=O)[C@@H]1C[C@@H]2CCCC[C@@H]2N1C(=O)[C@@H](NC(=O)[C@@H](NC(=O)c1cc2cc(F)ccc2[nH]1)C1CCCCC1)C(C)(C)C)C(=O)C(=O)NC1CC1`, the CC50 was > 100000 nM.

As for `CCC[C@H](NC(=O)[C@@H]1C[C@@H]2CCCC[C@@H]2N1C(=O)[C@@H](NC(=O)[C@@H](NC(=O)C(=O)NC(C)C)C1CCCCC1)C(C)(C)C)C(=O)C(=O)NC1CC1`, the CC50 is > 100000 nM.

Take `CCC[C@H](NC(=O)[C@@H]1C[C@@H]2CCCC[C@@H]2N1C(=O)[C@@H](NC(=O)[C@@H](NC(=O)c1ccccn1)C1CCCCC1)C(C)(C)C)C(=O)C(=O)NC1CC1`: the CC50 was > 100000 nM.

Turning to `CCC[C@H](NC(=O)[C@@H]1C[C@@H]2CCCC[C@@H]2N1C(=O)[C@@H](NC(=O)[C@@H](NC(=O)c1cnc2ccccc2n1)C1CCCCC1)C(C)(C)C)C(=O)C(=O)NC1CC1`, the CC50 is > 100000 nM.

As for `CCC[C@H](NC(=O)[C@@H]1C[C@@H]2CCCC[C@@H]2N1C(=O)[C@@H](NC(=O)[C@@H](NC(=O)[C@@H]1Cc2ccccc2N1)C1CCCCC1)C(C)(C)C)C(=O)C(=O)NC1CC1`, the CC50 was > 100000 nM.

On to `CCC[C@H](NC(=O)[C@@H]1C[C@@H]2CCCC[C@@H]2N1C(=O)[C@@H](NC(=O)[C@@H](NC(=O)C(=O)NCc1ccccc1)C1CCCCC1)C(C)(C)C)C(=O)C(=O)NC1CC1`, for which the CC50 is > 100000 nM.

In the case of `CCC[C@H](NC(=O)[C@@H]1C[C@@H]2CCCC[C@@H]2N1C(=O)[C@@H](NC(=O)[C@@H](NC(=O)c1ccoc1)C1CCCCC1)C(C)(C)C)C(=O)C(=O)NC1CC1`, the CC50 was > 100000 nM.

Consider `CCC[C@H](NC(=O)[C@@H]1C[C@@H]2CCCC[C@@H]2N1C(=O)[C@@H](NC(=O)[C@@H](NC(=O)C1(O)CCCC1)C1CCCCC1)C(C)(C)C)C(=O)C(=O)NC1CC1`, for which the CC50 is > 100000 nM.

As for `CCC[C@H](NC(=O)[C@@H]1C[C@@H]2CCCC[C@@H]2N1C(=O)[C@@H](NC(=O)[C@@H](NC(=O)c1cc([N+](=O)[O-])c[nH]1)C1CCCCC1)C(C)(C)C)C(=O)C(=O)NC1CC1`, the CC50 was > 100000 nM.

A further data set concerns Hepatitis C virus. Briefly: Inhibition of HCV replicon RNA production in HUh7 cells. It counts as functional, organism-based, Hepacivirus hominis. The note with it: Huh-7. (Replicon systems follow genome replication, usually without infectious particles.)
In general, IC50 refers to the midpoint of a concentration-inhibition curve. `CCC[C@H](NC(=O)[C@@H]1C[C@@H]2CCCC[C@@H]2N1C(=O)[C@@H](NC(=O)[C@@H](NC(=O)c1cc2cc(F)ccc2[nH]1)C1CCCCC1)C(C)(C)C)C(=O)C(=O)NC1CC1` came in with an IC50 of 490 nM.

Molecule `CCC[C@H](NC(=O)[C@@H]1C[C@@H]2CCCC[C@@H]2N1C(=O)[C@@H](NC(=O)[C@@H](NC(=O)C(=O)NC(C)C)C1CCCCC1)C(C)(C)C)C(=O)C(=O)NC1CC1` came in with an IC50 of 400 nM.

As for `CCC[C@H](NC(=O)[C@@H]1C[C@@H]2CCCC[C@@H]2N1C(=O)[C@@H](NC(=O)[C@@H](NC(=O)c1ccccn1)C1CCCCC1)C(C)(C)C)C(=O)C(=O)NC1CC1`, the IC50 worked out at 1900 nM. This IC50 lies about 4.8-fold higher than the previous one.

The molecule `CCC[C@H](NC(=O)[C@@H]1C[C@@H]2CCCC[C@@H]2N1C(=O)[C@@H](NC(=O)[C@@H](NC(=O)c1cnc2ccccc2n1)C1CCCCC1)C(C)(C)C)C(=O)C(=O)NC1CC1` had an IC50 of 1200 nM.

As to `CCC[C@H](NC(=O)[C@@H]1C[C@@H]2CCCC[C@@H]2N1C(=O)[C@@H](NC(=O)[C@@H](NC(=O)[C@@H]1Cc2ccccc2N1)C1CCCCC1)C(C)(C)C)C(=O)C(=O)NC1CC1`, half-maximal inhibition (IC50) was put at 1100 nM.

For `CCC[C@H](NC(=O)[C@@H]1C[C@@H]2CCCC[C@@H]2N1C(=O)[C@@H](NC(=O)[C@@H](NC(=O)C(=O)NCc1ccccc1)C1CCCCC1)C(C)(C)C)C(=O)C(=O)NC1CC1`, half-maximal inhibition (IC50) was put at 260 nM.

With `CCC[C@H](NC(=O)[C@@H]1C[C@@H]2CCCC[C@@H]2N1C(=O)[C@@H](NC(=O)[C@@H](NC(=O)c1ccoc1)C1CCCCC1)C(C)(C)C)C(=O)C(=O)NC1CC1`, the IC50 was 1400 nM.

`CCC[C@H](NC(=O)[C@@H]1C[C@@H]2CCCC[C@@H]2N1C(=O)[C@@H](NC(=O)[C@@H](NC(=O)C1(O)CCCC1)C1CCCCC1)C(C)(C)C)C(=O)C(=O)NC1CC1`: the IC50 worked out at 1600 nM. The IC50 values of the last two molecules are within 1.5-fold of each other.

The molecule `CCC[C@H](NC(=O)[C@@H]1C[C@@H]2CCCC[C@@H]2N1C(=O)[C@@H](NC(=O)[C@@H](NC(=O)c1cc([N+](=O)[O-])c[nH]1)C1CCCCC1)C(C)(C)C)C(=O)C(=O)NC1CC1` registered an IC50 of 370 nM. This IC50 is about 4.3-fold lower than that of the molecule before.

In another data set the test system is Liver. Briefly: Drug level in CD1 mouse liver at 50 mg/kg, po. Type of data set: ADME, organism-based. The arrangement: dose 50 mg/kg, route oral. The note with it: in vivo, read-out: Activity.
Regarding `CCC[C@H](NC(=O)[C@@H]1C[C@@H]2CCCC[C@@H]2N1C(=O)[C@@H](NC(=O)[C@@H](NC(=O)c1cc([N+](=O)[O-])c[nH]1)C1CCCCC1)C(C)(C)C)C(=O)C(=O)NC1CC1`, the concentration worked out at 10 nM.

A further data set deals with Mus musculus. Briefly: AUC(0 to 8 hrs) in CD1 mouse liver at 50 mg/kg, po. Further details: dose 50 mg/kg, route oral. The following applies: in vivo, 6 h. Type of data set: ADME, organism-based.
One may read the AUC as concentration integrated over time. A low value points to low exposure. In turn, `CCC[C@H](NC(=O)[C@@H]1C[C@@H]2CCCC[C@@H]2N1C(=O)[C@@H](NC(=O)[C@@H](NC(=O)c1cc([N+](=O)[O-])c[nH]1)C1CCCCC1)C(C)(C)C)C(=O)C(=O)NC1CC1` had an AUC of 0.06 µM·h.

Source of the values: ChEMBL document CHEMBL1148691, “Inhibitors of hepatitis C virus NS3.4A protease. Effect of P4 capping groups on inhibitory potency and pharmacokinetics” (Bioorg Med Chem Lett, 2007).
